PubChem BioAssay (NCI)
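Each compound was tested at five concentrations against cells in 96-well plates for 48 hours. GI50: concentration for 50% inhibition of growth. At the TGI there is no net growth.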

Legend:
Assay in all cases: NCI anticancer screen, dose series, 48 h
[1] = system: 786-0 renal
[2] = system: A498 renal
[3] = system: A549 NSCLC
[4] = system: ACHN renal
[5] = system: BT-549 breast
[6] = system: CAKI-1 renal
[7] = system: CCRF-CEM leukemia
[8] = system: COLO 205 colon
[9] = system: DU-145 prostate
[10] = system: EKVX NSCLC
[11] = system: HCC-2998 colon
[12] = system: HCT-116 colon
[13] = system: HCT-15 colon
[14] = system: HOP-62 NSCLC
[15] = system: HS 578T breast
[16] = system: IGROV1 ovarian
[17] = system: KM12 colon
[18] = system: M14 melanoma
[19] = system: MALME-3M melanoma
[20] = system: MCF7 breast
[21] = system: MDA-MB-231 breast
[22] = system: MDA-MB-435
[23] = system: NCI-H226 lung
[24] = system: NCI-H23 lung
[25] = system: NCI-H460 lung
[26] = system: NCI-H522 lung
[27] = system: NCI/ADR-RES ovarian
[28] = system: OVCAR-3 ovarian
[29] = system: OVCAR-4 ovarian
[30] = system: OVCAR-5 ovarian
[31] = system: OVCAR-8 ovarian
[32] = system: PC-3 prostate
[33] = system: RPMI-8226 leukemia
[34] = system: RXF 393 renal
[35] = system: SF-268 CNS
[36] = system: SF-295 CNS
[37] = system: SF-539 CNS
[38] = system: SK-MEL-2 melanoma
[39] = system: SK-MEL-28 melanoma
[40] = system: SK-MEL-5 melanoma
[41] = system: SK-OV-3 ovarian
[42] = system: SN12C renal
[43] = system: SNB-19 CNS
[44] = system: SNB-75 CNS
[45] = system: SR leukemia
[46] = system: SW-620 colon
[47] = system: T-47D breast
[48] = system: TK-10 renal
[49] = system: U251 CNS
[50] = system: UACC-257 melanoma
[51] = system: UACC-62 melanoma
[52] = system: UO-31 renal
[53] = system: HL-60(TB) leukemia
[54] = system: HOP-92 NSCLC
[55] = system: HT29 colon
[56] = system: K-562 leukemia

## CCN1CCC(CCOC)(CN2c3ccccc3Sc3ccc(Cl)cc32)C1 (stereo not drawn)
[1]
  GI50: 1.81 µM
  TGI: 3.39 µM
[2]
  GI50: 1.95 µM
  TGI: 7.39 µM
[3]
  GI50: 1.9 µM
  TGI: 3.56 µM
[4]
  GI50: 1.78 µM
  TGI: 3.44 µM
[5]
  GI50: 1.88 µM
  TGI: 3.68 µM
[6]
  GI50: 1.64 µM
  TGI: 3.11 µM
[7]
  GI50: 3.57 µM
  TGI: > 100 µM
[8]
  GI50: 1.71 µM
  TGI: 3.29 µM
[9]
  GI50: 1.92 µM
  TGI: 3.68 µM
[10]
  GI50: 2.04 µM
  TGI: 5.91 µM
[11]
  GI50: 1.63 µM
  TGI: 3.2 µM
[12]
  GI50: 1.86 µM
  TGI: 3.32 µM
[13]
  GI50: 2.04 µM
  TGI: 4.26 µM
[14]
  GI50: 1.67 µM
  TGI: 3.13 µM
[15]
  GI50: 2.12 µM
  TGI: 6.55 µM
[16]
  GI50: 1.97 µM
  TGI: 3.99 µM
[17]
  GI50: 1.79 µM
  TGI: 3.43 µM
[18]
  GI50: 1.92 µM
  TGI: 3.62 µM
[19]
  GI50: 1.91 µM
  TGI: 3.6 µM
[20]
  GI50: 1.86 µM
  TGI: 3.54 µM
[21]
  GI50: 1.86 µM
  TGI: 3.67 µM
[22]
  GI50: 1.74 µM
  TGI: 3.35 µM
[23]
  GI50: 1.92 µM
  TGI: 4.67 µM
[24]
  GI50: 2.2 µM
  TGI: 6.16 µM
[25]
  GI50: 1.9 µM
  TGI: 3.58 µM
[26]
  GI50: 1.74 µM
  TGI: 3.59 µM
[27]
  GI50: 1.73 µM
  TGI: 3.89 µM
[28]
  GI50: 1.88 µM
  TGI: 4.1 µM
[29]
  GI50: 2.72 µM
  TGI: 8.66 µM
[30]
  GI50: 1.83 µM
  TGI: 3.88 µM
[31]
  GI50: 2.07 µM
  TGI: 4.14 µM
[32]
  GI50: 2.03 µM
  TGI: 4.74 µM
[33]
  GI50: 2.52 µM
  TGI: 5.7 µM
[34]
  GI50: 1.77 µM
  TGI: 4.03 µM
[35]
  GI50: 2.73 µM
  TGI: 8.67 µM
[36]
  GI50: 1.73 µM
  TGI: 3.39 µM
[37]
  GI50: 1.76 µM
  TGI: 3.51 µM
[38]
  GI50: 2.54 µM
  TGI: 4.74 µM
[39]
  GI50: 1.97 µM
  TGI: 3.62 µM
[40]
  GI50: 1.69 µM
  TGI: 3.07 µM
[41]
  GI50: 1.91 µM
  TGI: 3.88 µM
[42]
  GI50: 12 µM
  TGI: 28.2 µM
[43]
  GI50: 2.65 µM
  TGI: 7.31 µM
[44]
  GI50: 2.25 µM
  TGI: 5.8 µM
[45]
  GI50: 4.01 µM
  TGI: > 100 µM
[46]
  GI50: 1.7 µM
  TGI: 3.24 µM
[47]
  GI50: 2.05 µM
  TGI: 4.6 µM
[48]
  GI50: 2.03 µM
  TGI: 3.67 µM
[49]
  GI50: 1.89 µM
  TGI: 3.64 µM
[50]
  GI50: 1.93 µM
  TGI: 3.87 µM
[51]
  GI50: 2.05 µM
  TGI: 3.81 µM
[52]
  GI50: 1.66 µM
  TGI: 3.63 µM

## O=C(/C(=C/c1ccc([N+](=O)[O-])cc1)c1ccccc1)c1ccccc1
[1]
  GI50: 3.56 µM
  TGI: > 100 µM
[2]
  GI50: 1.98 µM
  TGI: 8.86 µM
[3]
  GI50: 3.8 µM
  TGI: > 100 µM
[5]
  GI50: 2.57 µM
  TGI: 7.12 µM
[7]
  GI50: 2.25 µM
  TGI: > 100 µM
[8]
  GI50: 3.81 µM
  TGI: 18.2 µM
[9]
  GI50: 3.17 µM
  TGI: > 100 µM
[11]
  GI50: 2.38 µM
  TGI: 5.24 µM
[13]
  GI50: 2.85 µM
  TGI: > 100 µM
[53]
  GI50: 2.29 µM
  TGI: 5.71 µM
[14]
  GI50: 2.78 µM
  TGI: 6.12 µM
[54]
  GI50: 2.22 µM
  TGI: 6.98 µM
[15]
  GI50: 2.74 µM
  TGI: > 100 µM
[55]
  GI50: 3.33 µM
  TGI: > 100 µM
[16]
  GI50: 3.25 µM
  TGI: > 100 µM
[56]
  GI50: 3.08 µM
  TGI: > 100 µM
[17]
  GI50: 3.06 µM
  TGI: 9.52 µM
[18]
  GI50: 3.08 µM
  TGI: > 100 µM
[20]
  GI50: 3.2 µM
  TGI: > 100 µM
[21]
  GI50: 3.16 µM
  TGI: > 100 µM
[25]
  GI50: 2.34 µM
  TGI: 5.93 µM
[27]
  GI50: 3.23 µM
  TGI: > 100 µM
[28]
  GI50: 2.36 µM
  TGI: 5.64 µM
[29]
  GI50: 3.57 µM
  TGI: > 100 µM
[30]
  GI50: 4.91 µM
  TGI: > 100 µM
[32]
  GI50: 4.28 µM
  TGI: > 100 µM
[33]
  GI50: 2.36 µM
  TGI: 6.49 µM
[34]
  GI50: 2.78 µM
  TGI: 6.78 µM
[35]
  GI50: 3.55 µM
  TGI: > 100 µM
[36]
  GI50: 3.56 µM
  TGI: > 100 µM
[39]
  GI50: 2.27 µM
  TGI: 5.63 µM
[41]
  GI50: 4.19 µM
  TGI: > 100 µM
[43]
  GI50: 3.9 µM
  TGI: > 100 µM
[44]
  GI50: 2.11 µM
  TGI: 7.32 µM
[45]
  GI50: 2.79 µM
  TGI: > 100 µM
[47]
  GI50: 3.13 µM
  TGI: > 100 µM
[48]
  GI50: 3.43 µM
  TGI: > 100 µM
